Assay results: patent US20060287247A1, “Halogen-substituted thienyl compounds” (priority 2001, published 2006)

Assays:
[1] = tested on: S. aureus ATCC 29213; assay: NCCLS broth microdilution MIC; type: cell-based, Staphylococcus aureus; conditions: A = S. aureus ATCC 29213
Description: (§1) Compounds according to this invention were screened for their in vitro activities against selected species of bacteria and fungi. The minimal inhibition concentration (MIC) of these compounds was determined using the National Committee for Clinical Laboratory Standards (NCCLS) broth microdilution assay in microtiter plates, as set forth in: (1) the guidelines of the National Committee for Clinical Laboratory Standards (NCCLS) Document M7-A4 (NCCLS, 1997); (2) the guidelines of the National Committee for Clinical Laboratory Standards (NCCLS) Document M11-A4 (NCCLS, 1997); and (3) the guidelines and reference method of the National Committee for Clinical Laboratory Standards (NCCLS) Document M27-T (NCCLS, 1995). For antifungal essays, the method recommended in Murray, P R., 1995 Manual of Clinical Microbiology (ASM Press, Washington, D.C.), was employed. […]

[2] = tested on: E. faecalis ATCC 29212; assay: NCCLS broth microdilution MIC; type: cell-based, Enterococcus faecalis; conditions: B = E. faecalis ATCC 29212
Description: as §1

[3] = tested on: B. cereus ATCC 11778; assay: NCCLS broth microdilution MIC; type: cell-based, Bacillus cereus; conditions: C = B. cereus ATCC 11778
Description: as §1

[4] = tested on: E. coli ATCC 25922; assay: NCCLS broth microdilution MIC; type: cell-based; conditions: D = E. coli ATCC 25922
Description: as §1

[5] = tested on: C. albicans ATCC 38247; assay: NCCLS broth microdilution MIC (antifungal); type: cell-based; conditions: E = C. albicans ATCC 38247
Description: as §1

[6] = tested on: S. pneumoniae ATCC 49619; assay: NCCLS broth microdilution MIC; type: cell-based, Streptococcus pneumoniae; conditions: F = S. pneumoniae ATCC 49619
Description: as §1

[7] = tested on: 5′-AAAAAGACAAAAA-3′; type: binding; conditions: DNA sequence 5′-AAAAAGACAAAAA-3′; pH 7.0, 22° C.
Description: (§2) A number of compounds according to this invention were screened for their ability to bind to three DNA sites, using DNase I footprinting. Generally, the procedure described in Dervan, WO 98/50582 (1998), was followed.
(§3) A plasmid was prepared by hybridizing two sets of 5′-phosphorylated complementary oligonucleotides, one set being
(§4) The target sites and their complements are identified in bold underline.
(§5) The resulting duplexes were ligated to the large pUC19 AvaI/SalI restriction fragment. The 3′-P32 end-labeled EcoRI/PvuII fragment was prepared by digesting the plasmid with EcoRI and PvuII with simultaneous fill-in using Sequenase v. 2.0, [alpha-P32]-deoxyadenosine-5′-triphosphate, and [alpha-P32]-thymidine-5′-triphosphate, and isolating the cloned fragment by nondenaturing gel electrophoresis. Standard methods were used for all DNA manipulations, including A and G sequencing. See, e.g., Maxam et al., Methods Enzymol., 1980, 65, 499-560; Iverson et al., Methods Enzymol., 1987, 15, 7823-7830; and Sambrook et al., 1989, Molecular Cloning, 2nd ed., Cold Spring Harbor Laboratory Press: Cold Spring Harbor, N.Y.
(§6) Quantitative DNase I footprint titration experiments were carried out as described previously (Dervan, WO 98/50582, 1998, “Dervan '582”) with the following changes. All reactions were carried out in a total volume of 400 μL, with polyamide stock solution or water added to 15,000 cpm radiolabeled restriction fragment affording final solution conditions of 10 mM Tris.HCl, 10 mM KCl, 10 mM MgCl2, 5 mM CaCl2, pH 7.0 and 0.01 nM, 0.1 nM, 1.0 nM, 10.0 nM polyamide or no polyamide for reference lanes. The polyamides were allowed to equilibrate at 22° C. for 16 hr. Footprinting reactions were initiated with addition of 10 μL of a DNase I stock solution (at the appropriate concentration to give ˜50% intact DNA) containing 1 mM DTT and allowed to proceed for 7 min at 22° C. The reactions were stopped, ethanol precipitated, resuspended in loading buffer, heat denatured, and placed on ice as described in Dervan '582. The reaction products were separated on a precast 8% polyacrylamide denaturing sequencing Castaway gel with 32 preformed wells from Stratagene in 1× TBE at 2000 V. Gels were dried according to the manufacturer's instructions and exposed to a storage phosphor screen (Molecular Dynamics). Quantitation and data analysis were carried out as described in Dervan '582.

[8] = tested on: 5′-AAAAAGCAAAAA-3′; type: binding; conditions: DNA sequence 5′-AAAAAGCAAAAA-3′; pH 7.0, 22° C.
Description: as §2, §3, §4, §5, §6

[9] = tested on: 5′-AAAAAGTACAAAAA-3′; type: binding; conditions: DNA sequence 5′-AAAAAGTACAAAAA-3′; pH 7.0, 22° C.
Description: as §2, §3, §4, §5, §6

| Minimum Inhibitory Concentration (MIC) [1] | Minimum Inhibitory Concentration (MIC) [2] | Minimum Inhibitory Concentration (MIC) [3] | Minimum Inhibitory Concentration (MIC) [4] | Minimum Inhibitory Concentration (MIC) [5] | Minimum Inhibitory Concentration (MIC) [6] | SMILES | Equilibrium Association Constant (Ka) [7] | Equilibrium Association Constant (Ka) [8] | Equilibrium Association Constant (Ka) [9] |
| --- | --- | --- | --- | --- | --- | --- | --- | --- | --- |
| >32 µg/mL | ++ (++ = MIC between 4 and 12) | + (+ = MIC from 12 to 32, inclusive) | >32 µg/mL | >32 µg/mL | +++ (+++ = MIC ≦4) | CN(C)CCCNC(=O)CCNC(=O)c1cc(NC(=O)c2cc(NC(=O)CCNC(=O)c3cc(NC(=O)c4cc(NC(=O)c5ccc(Br)s5)cn4C)cn3C)cn2C)cn1C [Id-18] | ≧1 × 10^11 M^−1 | ≧1 × 10^11 M^−1 | ≧1 × 10^11 M^−1 |
| >32 µg/mL | +++ (+++ = MIC ≦4) | +++ (+++ = MIC ≦4) | >32 µg/mL | >32 µg/mL | +++ (+++ = MIC ≦4) | CC(C)N(CCNC(=O)CCNC(=O)c1cc(NC(=O)c2cc(NC(=O)CCNC(=O)c3cc(NC(=O)c4cc(NC(=O)c5ccc(Br)s5)cn4C)cn3C)cn2C)cn1C)C(C)C [Id-19] | 5e+09 M⁻¹ | 5e+09 M⁻¹ | ≧1 × 10^11 M^−1 |
| +++ (+++ = MIC ≦4) | +++ (+++ = MIC ≦4) | +++ (+++ = MIC ≦4) | >32 µg/mL | >32 µg/mL | +++ (+++ = MIC ≦4) | CN(C)CC(C)(C)CNC(=O)CCNC(=O)c1cc(NC(=O)c2cc(NC(=O)CCNC(=O)c3cc(NC(=O)c4cc(NC(=O)c5cc(Br)c(Br)s5)cn4C)cn3C)cn2C)cn1C [Id-7] | 5e+08 M⁻¹ | 5e+08 M⁻¹ | ≧1 × 10^11 M^−1 |
| +++ (+++ = MIC ≦4) | +++ (+++ = MIC ≦4) | +++ (+++ = MIC ≦4) | >32 µg/mL | >32 µg/mL | +++ (+++ = MIC ≦4) | Cn1cc(NC(=O)c2cc(NC(=O)CCNC(=O)c3cc(NC(=O)c4cc(NC(=O)c5cc(Br)c(Br)s5)cn4C)cn3C)cn2C)cc1C(=O)NCCC(=O)NCCCCCCN [Id-2] | 5e+08 M⁻¹ | 5e+08 M⁻¹ | 5e+09 M⁻¹ |
| + (+ = MIC from 12 to 32, inclusive) | ++ (++ = MIC between 4 and 12) | +++ (+++ = MIC ≦4) | >32 µg/mL | >32 µg/mL | +++ (+++ = MIC ≦4) | Cn1cc(NC(=O)c2cc(NC(=O)CCNC(=O)c3cc(NC(=O)c4cc(NC(=O)c5ccc(Br)s5)cn4C)cn3C)cn2C)cc1C(=O)NCCC(=O)NCCCCN [Id-17] | ≧1 × 10^11 M^−1 | ≧1 × 10^11 M^−1 | ≧1 × 10^11 M^−1 |
| +++ (+++ = MIC ≦4) | +++ (+++ = MIC ≦4) | +++ (+++ = MIC ≦4) | >32 µg/mL | >32 µg/mL | +++ (+++ = MIC ≦4) | CC(C)N(CCNC(=O)CCNC(=O)c1cc(NC(=O)c2cc(NC(=O)CCNC(=O)c3cc(NC(=O)c4cc(NC(=O)c5cc(Br)c(Br)s5)cn4C)cn3C)cn2C)cn1C)C(C)C [Id-3] | 5e+08 M⁻¹ | 5e+08 M⁻¹ | 5e+09 M⁻¹ |
| +++ (+++ = MIC ≦4) | +++ (+++ = MIC ≦4) | +++ (+++ = MIC ≦4) | >32 µg/mL | >32 µg/mL | +++ (+++ = MIC ≦4) | Cn1cc(NC(=O)c2cc(NC(=O)CCNC(=O)c3cc(NC(=O)c4cc(NC(=O)c5cc(Br)c(Br)s5)cn4C)cn3C)cn2C)cc1C(=O)NCCC(=O)NCC(C)(C)CN [Id-4] | 1e+10 M⁻¹ | 5e+09 M⁻¹ | 5e+11 M⁻¹ |
| >32 µg/mL | +++ (+++ = MIC ≦4) | +++ (+++ = MIC ≦4) | >32 µg/mL | >32 µg/mL | +++ (+++ = MIC ≦4) | CCN(CC)CCNC(=O)CCNC(=O)c1cc(NC(=O)c2cc(NC(=O)CCNC(=O)c3cc(NC(=O)c4cc(NC(=O)c5ccc(Br)s5)cn4C)cn3C)cn2C)cn1C [Id-22] | 2e+08 M⁻¹ | 2e+08 M⁻¹ | ≧1 × 10^11 M^−1 |
| +++ (+++ = MIC ≦4) | +++ (+++ = MIC ≦4) | +++ (+++ = MIC ≦4) | >32 µg/mL | >32 µg/mL | +++ (+++ = MIC ≦4) | Cn1cc(NC(=O)c2cc(NC(=O)CCNC(=O)c3cc(NC(=O)c4cc(NC(=O)c5cc(Br)c(Br)s5)cn4C)cn3C)cn2C)cc1C(=O)NCCC(=O)NCCN1CCCCC1 [Id-5] | 2e+10 M⁻¹ | 2e+09 M⁻¹ | 1e+11 M⁻¹ |
| >32 µg/mL | +++ (+++ = MIC ≦4) | +++ (+++ = MIC ≦4) | >32 µg/mL | >32 µg/mL | +++ (+++ = MIC ≦4) | Cn1cc(NC(=O)c2cc(NC(=O)CCNC(=O)c3cc(NC(=O)c4cc(NC(=O)c5ccc(Br)s5)cn4C)cn3C)cn2C)cc1C(=O)NCCC(=O)NCCCCCCN [Id-21] | 1e+10 M⁻¹ | 5e+10 M⁻¹ | ≧1 × 10^11 M^−1 |
| >32 µg/mL | >32 µg/mL | >32 µg/mL | >32 µg/mL | >32 µg/mL | +++ (+++ = MIC ≦4) | CN1CCCN(C(=O)CCNC(=O)c2cc(NC(=O)c3cc(NC(=O)CCNC(=O)c4cc(NC(=O)c5cc(NC(=O)c6ccc(Br)s6)cn5C)cn4C)cn3C)cn2C)CC1 [Id-16] | 5e+10 M⁻¹ | 5e+10 M⁻¹ | ≧1 × 10^11 M^−1 |
